Experiment [1] is described as follows: Selectivity ratio of IC50 for Aurora B to IC50 for Tie2.
The target of experiment [2] is T1, Aurora kinase B (Homo sapiens, UniProt Q96GD4). The experiment can be described thus: Inhibition of Aurora B.
The nature of experiment [3]: Selectivity ratio of IC50 for KDR to IC50 for Tie2.
Experiment [4] has as its target Tyrosine-protein kinase Lck (Homo sapiens, UniProt P06239). Kind of experiment: Inhibition of LCK.
Experiment [5] deals with T2, Angiopoietin-1 receptor (Homo sapiens, UniProt Q02763). Kind of experiment: Inhibition of Tie2 at 1 uM relative to control; values are per cent of control.
T2 sequence (Q02763 whole entry): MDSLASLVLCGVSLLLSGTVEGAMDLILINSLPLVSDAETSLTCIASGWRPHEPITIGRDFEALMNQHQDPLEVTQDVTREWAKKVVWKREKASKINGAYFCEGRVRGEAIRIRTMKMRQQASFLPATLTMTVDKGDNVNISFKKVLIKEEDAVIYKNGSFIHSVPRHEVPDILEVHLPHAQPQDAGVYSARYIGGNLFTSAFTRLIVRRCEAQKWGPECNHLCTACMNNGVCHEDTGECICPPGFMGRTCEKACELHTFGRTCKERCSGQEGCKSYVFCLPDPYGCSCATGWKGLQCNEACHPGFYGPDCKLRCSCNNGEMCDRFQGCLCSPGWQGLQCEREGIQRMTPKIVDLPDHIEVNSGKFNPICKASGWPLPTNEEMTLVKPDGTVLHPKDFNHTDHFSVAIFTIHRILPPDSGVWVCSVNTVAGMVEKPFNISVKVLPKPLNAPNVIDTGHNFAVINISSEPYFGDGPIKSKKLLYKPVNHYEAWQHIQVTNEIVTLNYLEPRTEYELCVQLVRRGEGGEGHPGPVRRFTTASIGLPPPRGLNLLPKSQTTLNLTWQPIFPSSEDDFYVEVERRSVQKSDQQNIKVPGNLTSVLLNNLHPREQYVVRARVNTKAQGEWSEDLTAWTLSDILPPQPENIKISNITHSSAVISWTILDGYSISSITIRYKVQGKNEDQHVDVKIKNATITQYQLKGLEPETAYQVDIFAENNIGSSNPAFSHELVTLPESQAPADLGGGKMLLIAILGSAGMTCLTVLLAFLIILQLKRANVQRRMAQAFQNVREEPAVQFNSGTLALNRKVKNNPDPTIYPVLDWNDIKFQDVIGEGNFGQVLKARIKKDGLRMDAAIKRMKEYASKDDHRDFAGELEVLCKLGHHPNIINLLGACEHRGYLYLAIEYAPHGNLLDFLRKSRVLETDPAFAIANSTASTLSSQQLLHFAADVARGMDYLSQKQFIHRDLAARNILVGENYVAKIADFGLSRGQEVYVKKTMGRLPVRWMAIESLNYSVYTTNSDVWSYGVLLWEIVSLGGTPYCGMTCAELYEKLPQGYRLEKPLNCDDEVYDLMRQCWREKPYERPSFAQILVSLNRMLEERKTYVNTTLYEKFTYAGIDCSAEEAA
For experiment [6], the target named is T3, Aurora kinase A (Homo sapiens) (UniProt O14965).
T3 sequence (whole entry): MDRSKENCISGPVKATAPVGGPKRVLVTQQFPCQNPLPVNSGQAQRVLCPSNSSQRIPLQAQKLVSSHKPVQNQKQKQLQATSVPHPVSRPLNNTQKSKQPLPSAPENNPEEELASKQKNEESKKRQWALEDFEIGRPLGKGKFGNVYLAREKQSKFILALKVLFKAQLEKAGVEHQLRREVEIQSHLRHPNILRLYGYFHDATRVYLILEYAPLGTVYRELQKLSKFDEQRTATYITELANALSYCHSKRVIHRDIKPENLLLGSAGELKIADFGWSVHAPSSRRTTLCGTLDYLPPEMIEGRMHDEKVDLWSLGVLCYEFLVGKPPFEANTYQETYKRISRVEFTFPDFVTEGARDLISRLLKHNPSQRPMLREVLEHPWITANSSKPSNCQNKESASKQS
Kind of experiment: Inhibition of Aurora A at 1 uM relative to control; values are per cent of control.

A short description of experiment [7]: Selectivity ratio of IC50 for Aurora A to IC50 for Tie2.
A short description of experiment [8]: Selectivity ratio of IC50 for LCK to IC50 for Tie2.
The target in experiment [9] is T4, Vascular endothelial growth factor receptor 2 (Homo sapiens, UniProt P35968). The experiment can be described thus: Inhibition of KDR at 1 uM relative to control; values are per cent of control.
T4 sequence (P35968 whole entry): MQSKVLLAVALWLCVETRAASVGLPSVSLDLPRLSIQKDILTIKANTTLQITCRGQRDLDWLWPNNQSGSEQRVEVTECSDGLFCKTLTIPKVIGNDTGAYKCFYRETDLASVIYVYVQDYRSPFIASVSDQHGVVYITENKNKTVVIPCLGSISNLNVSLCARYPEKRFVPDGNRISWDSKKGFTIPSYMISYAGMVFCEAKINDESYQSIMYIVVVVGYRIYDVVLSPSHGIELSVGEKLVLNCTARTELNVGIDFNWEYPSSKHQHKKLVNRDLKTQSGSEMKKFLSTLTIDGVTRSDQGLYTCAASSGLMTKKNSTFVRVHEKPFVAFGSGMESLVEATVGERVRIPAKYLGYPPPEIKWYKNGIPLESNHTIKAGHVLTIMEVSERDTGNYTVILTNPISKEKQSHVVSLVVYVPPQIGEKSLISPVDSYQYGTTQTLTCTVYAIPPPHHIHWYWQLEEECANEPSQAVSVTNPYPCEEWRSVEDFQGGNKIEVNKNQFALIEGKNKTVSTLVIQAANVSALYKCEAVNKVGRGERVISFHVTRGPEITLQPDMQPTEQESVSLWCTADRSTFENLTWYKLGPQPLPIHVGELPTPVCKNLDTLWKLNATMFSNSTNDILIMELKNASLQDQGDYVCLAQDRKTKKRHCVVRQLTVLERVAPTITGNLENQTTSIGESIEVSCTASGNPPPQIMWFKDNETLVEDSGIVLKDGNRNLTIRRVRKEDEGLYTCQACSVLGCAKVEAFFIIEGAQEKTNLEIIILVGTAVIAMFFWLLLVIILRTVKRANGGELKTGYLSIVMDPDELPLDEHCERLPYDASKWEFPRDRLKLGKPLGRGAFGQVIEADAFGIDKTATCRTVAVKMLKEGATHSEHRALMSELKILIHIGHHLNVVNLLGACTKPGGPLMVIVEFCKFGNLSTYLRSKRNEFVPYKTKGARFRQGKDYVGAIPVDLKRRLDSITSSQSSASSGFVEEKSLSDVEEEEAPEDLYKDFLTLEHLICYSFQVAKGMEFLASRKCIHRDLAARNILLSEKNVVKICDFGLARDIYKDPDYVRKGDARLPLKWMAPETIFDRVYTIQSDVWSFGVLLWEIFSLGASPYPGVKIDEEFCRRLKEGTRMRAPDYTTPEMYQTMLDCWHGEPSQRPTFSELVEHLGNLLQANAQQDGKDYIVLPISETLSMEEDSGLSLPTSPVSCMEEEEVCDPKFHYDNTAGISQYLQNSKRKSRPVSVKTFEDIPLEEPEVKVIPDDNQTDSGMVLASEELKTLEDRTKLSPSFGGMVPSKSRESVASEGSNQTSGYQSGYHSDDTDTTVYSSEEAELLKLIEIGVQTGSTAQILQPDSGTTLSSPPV
Experiment [10] has as its target T1, Aurora kinase B. Kind of experiment: Inhibition of Aurora B at 1 uM relative to control; values are per cent of control.
The target in experiment [11] is T5, Aurora kinase A (Homo sapiens, UniProt O14965).
T5 sequence (O14965 whole entry): T3 sequence (whole entry)
The experiment can be described thus: Inhibition of Aurora A.

Experiment [12] has as its target T4, Vascular endothelial growth factor receptor 2. The experiment can be described thus: Inhibition of KDR.
The target of experiment [13] is T2, Angiopoietin-1 receptor. The experiment can be described thus: Inhibition of Tie2.

Among the data in ChEMBL document CHEMBL1155514, “Analysis of kinase inhibitor selectivity using a thermodynamics-based partition index” (J Med Chem, 2010) are Ratio IC50, IC50 and residual activity values, retold here.

The IC50 is the midpoint of a concentration-inhibition curve. Read a low IC50 as higher potency. Broadly, the residual activity is what remains of the control signal, in per cent.

Chain of Tyrosine-protein kinase Lck (P06239 whole entry): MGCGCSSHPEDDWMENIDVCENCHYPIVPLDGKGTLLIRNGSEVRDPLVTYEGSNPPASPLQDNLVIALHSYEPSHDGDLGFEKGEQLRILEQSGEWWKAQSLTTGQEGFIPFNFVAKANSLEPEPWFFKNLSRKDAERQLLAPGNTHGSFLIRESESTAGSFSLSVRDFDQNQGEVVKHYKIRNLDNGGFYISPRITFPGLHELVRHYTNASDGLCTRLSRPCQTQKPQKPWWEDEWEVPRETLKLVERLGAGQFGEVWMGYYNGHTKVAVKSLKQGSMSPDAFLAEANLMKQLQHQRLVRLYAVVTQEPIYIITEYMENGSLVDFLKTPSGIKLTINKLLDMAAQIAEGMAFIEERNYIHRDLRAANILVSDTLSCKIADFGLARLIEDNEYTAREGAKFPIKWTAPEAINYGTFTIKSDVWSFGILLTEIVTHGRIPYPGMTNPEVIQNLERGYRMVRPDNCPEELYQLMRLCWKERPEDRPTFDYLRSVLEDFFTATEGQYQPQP
T1 sequence (Q96GD4 whole entry): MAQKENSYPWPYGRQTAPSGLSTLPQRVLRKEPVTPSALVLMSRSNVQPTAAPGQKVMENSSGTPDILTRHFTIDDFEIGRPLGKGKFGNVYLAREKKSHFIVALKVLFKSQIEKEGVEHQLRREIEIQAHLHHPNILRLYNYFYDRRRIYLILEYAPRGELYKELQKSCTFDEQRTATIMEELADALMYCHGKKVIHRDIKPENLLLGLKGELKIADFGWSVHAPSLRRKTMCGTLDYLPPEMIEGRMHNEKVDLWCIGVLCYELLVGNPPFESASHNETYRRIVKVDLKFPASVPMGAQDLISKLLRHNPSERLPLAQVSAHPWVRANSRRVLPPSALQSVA

For the molecule `CNc1nccc(-c2cccnc2Oc2ccc(NC(=O)Nc3ccccc3)c3ccccc23)n1`, the Ratio IC50 in [1] was 4; in experiment [3], 7; in [7], 10; in experiment [8], 9. The IC50 in [2] came out at 23 nM; in experiment [4], 48 nM; in experiment [11], 52 nM. Moreover, the residual activity was 1% in experiment [5], 5% in experiment [6], 4% in experiment [9] and 2% in experiment [10].
Turning to `CNc1nccc(-c2cccnc2Oc2ccc(Nc3nc4cc(C(F)(F)F)ccc4[nH]3)c3ccccc23)n1`, the IC50 in [2] is 56 nM; in experiment [4] it was 132 nM; in [11], 16 nM.
For `CNc1nccc(-c2cccnc2Oc2ccc(Nc3nc4ccc(C(F)(F)F)cc4[nH]3)c3ccccc23)n1`, the Ratio IC50 in experiment [1] is 2; in experiment [3], 3; in experiment [7], 1; in [8], 5. Further, the residual activity in experiment [5] came to 3%; in experiment [6] it was 2%; in experiment [9] it was 6%; in [10], 5%.
As to `CNc1nccc(-c2cccnc2Oc2ccc(Nc3nc4ccccc4s3)c3ccccc23)n1`, the Ratio IC50 came out at 3 in experiment [1], 2 in [3], 9 in [7] and 2 in experiment [8]. Further, the results for the IC50 in experiment [2], in [4] and in [11] were 143 nM, 80 nM and 380 nM, respectively. Besides, the residual activity in experiment [5] came out at 4%; in [6], 28%; in experiment [9] it was 8%; in [10], 13%.
With `CNc1nccc(-c2cccnc2Oc2ccc(NC(=O)NC(C)(C)C)c3ccccc23)n1`, the IC50 in experiment [12] was determined as 2220 nM; in experiment [2], 55 nM; in [4], 4090 nM; in experiment [13], 215 nM; in experiment [11] it was 225 nM. The Ratio IC50 in experiment [1] stood at 0.1; in experiment [3], 10; in experiment [7], 1; in experiment [8] it was 19. Besides, the residual activity was 18% in experiment [5], 18% in experiment [6], 69% in [9] and 5% in experiment [10].
As for `CN(C)CC(C)(C)CNc1nccc(-c2cccnc2Oc2ccc(Nc3nc4ccccc4[nH]3)c3ccccc23)n1`, the IC50 in experiment [12] was determined as 10000 nM; in experiment [2], 759 nM; in experiment [4], 10000 nM; in [13], 82 nM; in [11] it was 1660 nM. The Ratio IC50 amounted to 9 in experiment [1], 123 in experiment [3], 20 in experiment [7] and 123 in experiment [8]. Besides, the residual activity is 8% in experiment [5], 62% in experiment [6], 91% in experiment [9] and 43% in experiment [10].
As to `CN1CCCC1CCNc1nccc(-c2cccnc2Oc2ccc(Nc3nc4ccccc4[nH]3)c3ccccc23)n1` (stereo unspecified), the IC50 stood at 2060 nM in experiment [12]; 47 nM in experiment [2]; 269 nM in experiment [4]; 2 nM in [13]; 327 nM in experiment [11]. Further, the Ratio IC50 was determined as 21 in experiment [1], 146 in experiment [7] and 120 in experiment [8]. The residual activity in experiment [5] amounted to 0%; in experiment [6], 25%; in experiment [9], 67%; in experiment [10], 4%.
On to `CNc1nccc(-c2cccnc2Oc2ccc(Nc3nc4ccccc4o3)c3ccccc23)n1`, for which the Ratio IC50 was 3 in [1], 2 in experiment [3], 9 in experiment [7] and 2 in experiment [8]. Moreover, the values for the IC50 in experiment [2], in [4] and in [11] were 134 nM, 25 nM and 141 nM, respectively. Besides, the residual activity turned out to be 2% in experiment [5], 12% in [6], 3% in experiment [9] and 12% in experiment [10].
Turning to `CNc1nccc(-c2cccnc2Oc2ccc(Nc3nc4ccncc4[nH]3)c3ccccc23)n1`, the IC50 in experiment [12] was determined as 6360 nM; in [2], 454 nM; in experiment [4] it was 4800 nM; in experiment [13], 86 nM; in [11], 1070 nM. Further, the Ratio IC50 was determined as 5 in experiment [1], 74 in experiment [3], 12 in [7] and 56 in experiment [8]. Further, the residual activity was found to be 8% in [5], 52% in experiment [6], 86% in experiment [9] and 31% in experiment [10].
With `CCN1CCC(CNc2nccc(-c3cccnc3Oc3ccc(Nc4nc5ccccc5[nH]4)c4ccccc34)n2)CC1`, the IC50 in [12] is 1750 nM; in experiment [2], 100 nM; in [4], 387 nM; in [13] it was 1 nM; in experiment [11] it was 332 nM. Further, the Ratio IC50 in experiment [1] turned out to be 100; in experiment [3], 1750; in experiment [7], 332; in experiment [8] it was 387. For the same molecule, the residual activity was found to be 0% in experiment [5], 25% in experiment [6], 64% in experiment [9] and 9% in experiment [10].
For the molecule `CNc1nccc(-c2cccnc2Oc2c(C)cc(Nc3nc4ccccc4[nH]3)c3ccccc23)n1`, the IC50 in [12] came out at 10000 nM; in experiment [2], 77 nM; in experiment [4] it was 405 nM; in [11] it was 29 nM. The residual activity in experiment [5] was 0%; in experiment [6], 3%; in experiment [9] it was 91%; in [10] it was 7%.
`CNc1nccc(-c2cccnc2Oc2ccc(Nc3nc4ccccc4[nH]3)c3ccccc23)n1`: the Ratio IC50 was determined as 7 in experiment [1], 998 in experiment [3], 14 in experiment [7] and 211 in experiment [8]. In addition, the IC50 in experiment [2] was found to be 9 nM; in [4] it was 292 nM. Also, the residual activity was determined as 0% in experiment [5], 2% in experiment [6], 58% in experiment [9] and 1% in [10].
